The target in one assay is T1, avidin (Gallus gallus, UniProt P02701).
T1 construct: avidin (lyophilised powder, from egg white); purchased Sigma-Aldrich; host or cells: egg white
Kind of assay: Avidin binding saturation in solution, percentage binding determined by HPLC. The following applies: 2-128 nmol ligand, 2 nmol avidin, 5 min, room temperature.

In a further assay the test system is porcine islets. The note with it: porcine islets in vitro; cited from earlier work.

Consider two compounds from patent publication US8846001B2 (GE Healthcare Limited, priority 2009, dated 2014).

T1 sequence (P02701 25-152): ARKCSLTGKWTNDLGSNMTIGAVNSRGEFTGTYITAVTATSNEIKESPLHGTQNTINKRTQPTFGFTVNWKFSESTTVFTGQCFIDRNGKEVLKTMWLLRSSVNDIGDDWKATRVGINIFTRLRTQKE
Experimental for avidin: The percentage binding was determined by HPLC analysis.
The incubation was carried out during 5 min at room temperature with varied ligand concentration resulting in ligand/avidin ratio of 0.25, 1, 4 and 16. Data are presented as mean±SD (n=2). […] The specific binding presented as the avidin consumption in percentage was plotted against the ratio of total molar concentration of added ligands and avidin. The result was analyzed by nonlinear regression using the GraphPad Prism Software.

`O=C(O)CCCC[C@@H]1SC[C@@H]2NC(=O)N[C@@H]21` [Biotin, 5-[(3aS,4S,6aR)-2-oxohexahydro-1H-thieno[3,4-d]imidazol-4-yl]pentanoic acid]: the “binding to avidin in solution (in words)” value at avidin was “highest binding”.
As for `OC[C@H]1OC(O)[C@H]([18F])[C@@H](O)[C@@H]1O` (some centres unmarked) [[^18F]FDG], the half-life of retention with porcine islets is 2.358 h.
